Experimental data from paper PMC4775224 (2015).

System: TPP riboswitch aptamer (wtAtRs1 + wtAtRs2 + wtAtRs3, splint-ligated) (RNA, riboswitch, amino-modified U (5-N-U) at 59 (U replaces G88 in paper numbering); amino-modified U (5-LC-N-U) at 123 (U25 in paper numbering)) AUCGAGAGGGACACGGGGAAACACCACCAUAUAUGCACCAGGGGUGCUUGAACCAGGAUAGCCUGCGAAAAGGCGGGCUAUCCGGGACCAGGCUGAGAAAGUCCCUUUGAACCUGAACAGGGUAAUGCCUGCGCAGGGAGUGUGCUAACAAGGUCACCAUCAUCCUGACUAGAGUCCUUGG
Test: optical-trap force spectroscopy with smFRET
Settings: 130 mM KCl, 4 mM Mg2+, 50 mM HEPES pH 7.5, 1 mM EDTA, oxygen scavengers

For `Cc1ncc(C[n+]2csc(CCOP(=O)(O)OP(=O)(O)O)c2C)c(N)n1`, the binding (5 µM, 50 µM and 2 mM TPP, weak then strong state) was “yes”.

With `Cc1ncc(C[n+]2csc(CCOP(=O)(O)O)c2C)c(N)n1` the binding (2 mM TMP (saturating), arms not docked) was “yes”.

For `Cc1ncc(C[n+]2csc(CCO)c2C)c(N)n1`, the binding (2 mM thiamine (saturating), arms not docked) was “yes”.
